Activity calls are given as the source filed them.
Columns and labels:
Type in all cases: functional
[1] = target: T1, Alkaline phosphatase, tissue-nonspecific isozyme (Homo sapiens, UniProt P05186); assay: activation of tissue-nonspecific alkaline phosphatase – biochemical, TNAP isozyme, human IAP uHTS hits, selectivity assay for human IAP activator project, dose response (AID 488886);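 further: potency of compounds raising TNAP activity as a selectivity check on IAP activators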
T1 sequence (P05186 whole entry): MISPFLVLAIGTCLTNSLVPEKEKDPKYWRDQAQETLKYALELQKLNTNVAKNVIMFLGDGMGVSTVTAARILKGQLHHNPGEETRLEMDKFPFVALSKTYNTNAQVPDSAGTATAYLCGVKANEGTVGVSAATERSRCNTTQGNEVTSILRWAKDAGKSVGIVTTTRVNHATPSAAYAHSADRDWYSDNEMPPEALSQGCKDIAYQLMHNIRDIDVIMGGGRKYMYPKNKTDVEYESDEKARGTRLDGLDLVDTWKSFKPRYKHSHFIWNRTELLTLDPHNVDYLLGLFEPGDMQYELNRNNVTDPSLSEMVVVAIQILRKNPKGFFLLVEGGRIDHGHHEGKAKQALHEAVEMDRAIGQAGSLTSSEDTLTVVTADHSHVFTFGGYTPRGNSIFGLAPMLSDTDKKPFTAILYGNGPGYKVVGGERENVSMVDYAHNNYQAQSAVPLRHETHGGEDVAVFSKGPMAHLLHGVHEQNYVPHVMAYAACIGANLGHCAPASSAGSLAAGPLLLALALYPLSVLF

[2] = target: T2, Intestinal-type alkaline phosphatase (Homo sapiens, UniProt P09923); assay: human intestinal alkaline phosphatase activators, dose response, biochemical, luminescence, uHTS hits (AID 463120)
[3] = target: T2, Intestinal-type alkaline phosphatase; assay: activation of human intestinal alkaline phosphatase – biochemical, luminescent, uHTS hits, set 2, dose response (AID 488817);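 further: potency of activators that raise enzyme activity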
Protein RecA = target: T3, Protein RecA (Mycobacterium tuberculosis, UniProt P9WHJ3); assay: Fluorescence Cell-Free Homogeneous Dose Retest to Identify Inhibitors of RecA-Intein Splicing Activity. [Related pubchem assays (depositor defined):AID2097, AID2223, AID489010, AID492950]
T3 sequence (P9WHJ3 whole entry): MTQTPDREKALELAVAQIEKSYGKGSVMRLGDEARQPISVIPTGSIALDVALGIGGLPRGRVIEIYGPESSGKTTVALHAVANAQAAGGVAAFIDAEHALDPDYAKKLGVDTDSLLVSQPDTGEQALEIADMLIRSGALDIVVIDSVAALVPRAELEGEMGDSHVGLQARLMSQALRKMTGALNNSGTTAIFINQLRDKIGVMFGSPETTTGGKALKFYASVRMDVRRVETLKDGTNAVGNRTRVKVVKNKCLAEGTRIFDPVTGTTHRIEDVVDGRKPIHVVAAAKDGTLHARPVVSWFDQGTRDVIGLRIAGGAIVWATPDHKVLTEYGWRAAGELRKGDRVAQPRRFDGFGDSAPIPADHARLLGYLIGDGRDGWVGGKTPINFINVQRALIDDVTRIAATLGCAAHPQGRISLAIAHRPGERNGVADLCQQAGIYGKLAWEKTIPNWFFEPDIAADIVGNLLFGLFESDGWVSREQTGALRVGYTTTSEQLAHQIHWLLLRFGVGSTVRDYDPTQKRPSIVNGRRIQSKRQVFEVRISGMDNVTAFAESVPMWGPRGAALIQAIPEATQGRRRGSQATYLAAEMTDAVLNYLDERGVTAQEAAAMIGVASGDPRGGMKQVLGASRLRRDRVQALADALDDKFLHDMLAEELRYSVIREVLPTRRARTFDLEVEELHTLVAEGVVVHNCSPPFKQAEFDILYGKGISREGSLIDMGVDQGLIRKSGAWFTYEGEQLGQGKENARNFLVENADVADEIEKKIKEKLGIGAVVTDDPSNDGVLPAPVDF

[4] = target: T4, High affinity choline transporter 1 (Homo sapiens, UniProt Q9GZV3); assay: human choline transporter blockers, potency – cell-based, 5-point CRC, membrane potential dye, dose response (AID 504840)
T4 sequence (Q9GZV3 whole entry): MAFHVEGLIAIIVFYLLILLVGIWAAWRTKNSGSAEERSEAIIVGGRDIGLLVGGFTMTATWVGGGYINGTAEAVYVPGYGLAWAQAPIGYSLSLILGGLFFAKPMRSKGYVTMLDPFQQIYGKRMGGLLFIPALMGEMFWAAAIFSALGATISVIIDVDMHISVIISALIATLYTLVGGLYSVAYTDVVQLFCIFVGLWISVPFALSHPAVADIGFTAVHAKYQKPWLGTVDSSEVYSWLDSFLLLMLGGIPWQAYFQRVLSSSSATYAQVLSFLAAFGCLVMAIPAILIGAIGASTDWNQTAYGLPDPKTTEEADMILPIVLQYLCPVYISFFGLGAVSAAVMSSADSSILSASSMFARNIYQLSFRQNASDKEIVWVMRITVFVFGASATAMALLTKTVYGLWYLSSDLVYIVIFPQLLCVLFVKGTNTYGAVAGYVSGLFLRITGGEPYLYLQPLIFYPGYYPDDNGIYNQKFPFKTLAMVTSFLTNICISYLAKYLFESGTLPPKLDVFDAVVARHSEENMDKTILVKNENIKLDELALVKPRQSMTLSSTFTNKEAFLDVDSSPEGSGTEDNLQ

[5] = target: Intestinal-type alkaline phosphatase (Mus musculus, UniProt P24822); assay: PubChem AID 488875
[6] = Luminescence Cell-Based Dose Retest to Confirm Inhibitors of Cancer Stem Cells. [Related pubchem assays (depositor defined):AID2717, AID2721]; conditions: Homo sapiens
[7] = target: T5, Replicative DNA helicase DnaB (Mycobacterium tuberculosis, UniProt P9WMR3); assay: DnaB intein splicing inhibitors, dose response, biochemical, cell-free fluorescence (AID 449749)
T5 sequence (P9WMR3 whole entry): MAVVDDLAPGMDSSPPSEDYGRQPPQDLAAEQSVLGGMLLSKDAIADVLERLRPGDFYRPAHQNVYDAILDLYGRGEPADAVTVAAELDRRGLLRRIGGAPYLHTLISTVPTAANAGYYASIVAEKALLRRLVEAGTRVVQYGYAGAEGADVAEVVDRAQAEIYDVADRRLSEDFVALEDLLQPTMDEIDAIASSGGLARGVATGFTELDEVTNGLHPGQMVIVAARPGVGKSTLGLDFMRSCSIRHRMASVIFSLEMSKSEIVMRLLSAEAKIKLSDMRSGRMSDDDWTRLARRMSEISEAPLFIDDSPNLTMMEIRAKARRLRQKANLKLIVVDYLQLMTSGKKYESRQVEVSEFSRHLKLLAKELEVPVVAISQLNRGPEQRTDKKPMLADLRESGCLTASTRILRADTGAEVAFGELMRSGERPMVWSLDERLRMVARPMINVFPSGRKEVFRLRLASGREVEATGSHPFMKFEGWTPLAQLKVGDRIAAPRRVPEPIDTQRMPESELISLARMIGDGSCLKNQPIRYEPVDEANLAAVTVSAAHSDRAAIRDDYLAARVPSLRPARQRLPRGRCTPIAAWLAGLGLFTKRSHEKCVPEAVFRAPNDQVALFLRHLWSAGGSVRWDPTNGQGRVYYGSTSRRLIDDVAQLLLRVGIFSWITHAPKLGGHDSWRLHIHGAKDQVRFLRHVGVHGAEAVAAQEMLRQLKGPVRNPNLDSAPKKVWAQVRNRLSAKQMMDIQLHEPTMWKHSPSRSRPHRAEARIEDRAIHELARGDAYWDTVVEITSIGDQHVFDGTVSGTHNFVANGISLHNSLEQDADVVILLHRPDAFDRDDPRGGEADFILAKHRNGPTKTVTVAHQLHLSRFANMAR

T2 sequence (P09923 whole entry): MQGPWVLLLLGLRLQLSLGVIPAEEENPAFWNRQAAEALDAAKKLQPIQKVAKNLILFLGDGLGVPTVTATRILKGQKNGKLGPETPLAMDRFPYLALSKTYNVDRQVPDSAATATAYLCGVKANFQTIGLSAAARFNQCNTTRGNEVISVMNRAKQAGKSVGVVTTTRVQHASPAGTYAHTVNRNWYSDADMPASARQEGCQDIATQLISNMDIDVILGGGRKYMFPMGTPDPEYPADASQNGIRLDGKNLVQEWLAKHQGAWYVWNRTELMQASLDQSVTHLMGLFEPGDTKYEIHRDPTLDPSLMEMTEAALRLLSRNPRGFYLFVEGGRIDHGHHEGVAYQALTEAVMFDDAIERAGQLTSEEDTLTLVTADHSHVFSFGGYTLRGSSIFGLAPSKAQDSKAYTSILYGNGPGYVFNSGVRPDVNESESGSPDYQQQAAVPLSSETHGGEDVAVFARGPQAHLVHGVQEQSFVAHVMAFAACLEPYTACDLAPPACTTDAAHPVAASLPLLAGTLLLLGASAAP
Chain of Intestinal-type alkaline phosphatase (Mus musculus, UniProt P24822) (P24822 whole entry): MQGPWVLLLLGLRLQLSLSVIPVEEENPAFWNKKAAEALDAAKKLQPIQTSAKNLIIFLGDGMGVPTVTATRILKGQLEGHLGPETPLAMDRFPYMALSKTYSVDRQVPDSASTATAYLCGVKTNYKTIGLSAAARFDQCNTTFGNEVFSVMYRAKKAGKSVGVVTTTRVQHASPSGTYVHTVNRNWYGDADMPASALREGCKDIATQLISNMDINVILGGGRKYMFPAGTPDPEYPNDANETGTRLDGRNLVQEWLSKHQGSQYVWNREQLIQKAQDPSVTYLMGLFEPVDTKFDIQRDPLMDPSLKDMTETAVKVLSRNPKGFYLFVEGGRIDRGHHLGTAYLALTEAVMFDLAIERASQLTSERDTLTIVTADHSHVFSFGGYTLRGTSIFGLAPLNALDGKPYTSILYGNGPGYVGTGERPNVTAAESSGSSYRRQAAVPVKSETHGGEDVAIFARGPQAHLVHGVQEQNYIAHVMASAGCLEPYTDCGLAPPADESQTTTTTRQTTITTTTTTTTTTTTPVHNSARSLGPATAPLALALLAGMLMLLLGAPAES

Cc1cc(C)cc(CC(Cc2nc3ccccc3[nH]2)c2nc3ccccc3[nH]2)c1 (stereo not drawn)
active: EC50 [1] 69.7 µM | EC50 [2] 65.7 µM | EC50 [3] 55.6 µM | EC50 (Protein RecA) 83 µM | IC50 [4] 15.8 µM | EC50 [5] 26.6 µM | AC50 [6] 6.69 µM | AC50 [7] 8.31 µM

Reference: ChEMBL document CHEMBL1201862, “PubChem BioAssay data set” (2004)
